This note sets out measurements from PMC5640562, “Synthesis and anticancer activity of novel quinazolinone-based rhodanines” (Chemistry Central Journal, 2017).

Series [1] relates to HT-1080 cells. Nature of the series: MTT cytotoxicity assay, HT-1080 fibrosarcoma cells. It is filed as cell-based, human. The settings on record: Homo sapiens, HT-1080, 72 h, 3 days incubation, mean of three independent experiments (± standard deviation). Here is the method:
The compounds were tested for their cytotoxic activity on a solid tumor cell line, i.e. HT-1080 originating from a fibrosarcoma (American Type Culture Collection; ATCC, Rockville, MD, USA), and on two leukemia cell lines, i.e. the HL-60 human promyelocytic leukemia (European Collection of Animal Cell Cultures; ECACC, Salisbury, UK) and the K-562 human chronic myelogenous leukemia (ATCC). Furthermore, the human skin fibroblast strain AG01523 (Coriell Institute for Medical Research, Camden, NJ, USA) was also used as normal control. Adherent cells were routinely cultured in Dulbecco’s […] (DMEM), and leukemia cells in RPMI 1640, in an environment of 5% CO2, 85% humidity, and 37 °C. All media were supplemented with penicillin (100 U/ml), streptomycin (100 μg/ml) (media and antibiotics from Biochrom KG, Berlin, Germany), and 10% fetal bovine serum (Life Technologies Europe BV, Thessaloniki, Greece). Adherent cells were subcultured using a trypsin (0.25%; Life Technologies Europe BV)—citrate (0.30%; Sigma, St. Louis, MO, USA) solution. The cytotoxicity assay was performed by a modification of the MTT method. Briefly, the cells were plated in flat-bottomed 96-well microplates at a density of 5000 cells/well, and incubated overnight before the addition of serial dilutions of the test compounds. The cells were incubated with the compounds or the corresponding vehicle (DMSO) concentrations for 3 days. Then, the medium was replaced with MTT (Sigma) in serum-free, phenol-red-free DMEM (1 mg/ml). After incubation for 4 h, the MTT formazan was solubilized in 2-propanol, and the optical density was measured using a FLUOstar Optima (BMG Labtech, Ortenberg, Germany) microplate reader at a wavelength of 550 nm (reference wavelength 660 nm). Doxorubicin hydrochloride (Sigma) was included in the experiments as positive control. The results represent the mean of three independent experiments and are expressed as IC50 [42].
In general terms: Tetrazolium assays rely on reduction of a dye to a coloured formazan, in cell work by metabolically active cells.

Usually melting point stands for the temperature of the solid-liquid transition. `O=C1NC(=S)SC1=Cc1ccc(OCc2nc3ccccc3c(=O)n2-c2ccc(F)cc2)cc1` (hydrate or solvate) [Compound 32, 5-{4-[(3-(4-Fluorophenyl)-4-oxo-3,4-dihydroquinazolin-2-yl)methoxy]benzylidene}-2-thioxothiazolidin-4-one]: the melting point was 231 to 233 °C (dec.).
One may read the IC50 as the concentration needed to halve the response being measured. Higher therefore signals lower potency. `O=C1NC(=S)SC1=Cc1ccc(OCc2nc3ccccc3c(=O)n2-c2ccc(F)cc2)cc1` [Compound 32, 5-{4-[(3-(4-Fluorophenyl)-4-oxo-3,4-dihydroquinazolin-2-yl)methoxy]benzylidene}-2-thioxothiazolidin-4-one]: in series [1], half-maximal inhibition (IC50) was put at 47.3 µM.
In series [1], `O=C1NC(=S)SC1=Cc1ccc(OCc2nc3ccccc3c(=O)n2-c2ccc(Cl)cc2)cc1` [Compound 33, 5-{4-[(3-(4-Chlorophenyl)-4-oxo-3,4-dihydroquinazolin-2-yl)methoxy]benzylidene}-2-thioxothiazolidin-4-one] showed an IC50 of 35.3 µM.
Still for that read-out and setting: to `O=C1NC(=S)SC1=Cc1ccc(OCc2nc3ccccc3c(=O)n2-c2cccc(Cl)c2)cc1` [Compound 34, 5-{4-[(3-(3-Chlorophenyl)-4-oxo-3,4-dihydroquinazolin-2-yl)methoxy]benzylidene}-2-thioxothiazolidin-4-one] belongs 57.1 µM; to `O=C1NC(=S)SC1=Cc1ccc(OCc2nc3ccccc3c(=O)n2-c2ccc(Br)cc2)cc1` [Compound 35, 5-{4-[(3-(4-Bromophenyl)-4-oxo-3,4-dihydroquinazolin-2-yl)methoxy]benzylidene}-2-thioxothiazolidin-4-one], 28.8 µM; to `O=C1NC(=S)SC1=Cc1ccc(OCc2nc3ccccc3c(=O)n2-c2cccc(Br)c2)cc1` [Compound 36, 5-{4-[(3-(3-Bromophenyl)-4-oxo-3,4-dihydroquinazolin-2-yl)methoxy]benzylidene}-2-thioxothiazolidin-4-one], 43.4 µM.
As for `Cc1ccc(-n2c(COc3ccc(C=C4SC(=S)NC4=O)cc3)nc3ccccc3c2=O)cc1` [Compound 38, 5-{4-[(3-(4-Methylphenyl)-4-oxo-3,4-dihydroquinazolin-2-yl)methoxy]benzylidene}-2-thioxothiazolidin-4-one], in series [1], 35.7 µM corresponded to half-maximal inhibition (IC50).
The same measure, in the same setting: to `COc1cc(C=C2SC(=S)NC2=O)ccc1OCc1nc2ccccc2c(=O)n1-c1ccccc1` [Compound 41, 5-{4-[(3-Phenyl-4-oxo-3,4-dihydroquinazolin-2-yl)methoxy]-3-methoxybenzylidene}-2-thioxothiazolidin-4-one] belongs 36.1 µM.
On the same count and under the same terms, with `COc1cc(C=C2SC(=S)NC2=O)ccc1OCc1nc2ccccc2c(=O)n1-c1cccc(Br)c1` [Compound 46, 5-{4-[(3-(3-Bromophenyl)-4-oxo-3,4-dihydroquinazolin-2-yl)methoxy]-3-methoxybenzylidene}-2-thioxothiazolidin-4-one] the figure was 23.7 µM.
The compound `COc1cc(C=C2SC(=S)NC2=O)ccc1OCc1nc2ccccc2c(=O)n1-c1ccc(C)cc1` [Compound 48, 5-{4-[(3-(4-Methylphenyl)-4-oxo-3,4-dihydroquinazolin-2-yl)methoxy]-3-methoxybenzylidene}-2-thioxothiazolidin-4-one] gave an IC50 in series [1] of 31.5 µM.
Take `COc1cc(C=C2SC(=S)NC2=O)ccc1OCc1nc2ccccc2c(=O)n1-c1cccc(C)c1` [Compound 49, 5-{4-[(3-(3-Methylphenyl)-4-oxo-3,4-dihydroquinazolin-2-yl)methoxy]-3-methoxybenzylidene}-2-thioxothiazolidin-4-one]: half-maximal inhibition in series [1] (IC50) was put at 30.7 µM. This IC50 and that of the compound before are within 1.5-fold of each other.
On the same count and under the same terms, to `COc1ccc(-n2c(COc3ccc(C=C4SC(=S)NC4=O)cc3OC)nc3ccccc3c2=O)cc1` [Compound 50, 5-{4-[(3-(4-Methoxyphenyl)-4-oxo-3,4-dihydroquinazolin-2-yl)methoxy]-3-methoxybenzylidene}-2-thioxothiazolidin-4-one] belongs 34.7 µM.
